# Molecular target: T1, aldosterone receptor MR (Rattus norvegicus, UniProt P22199)
# T1 construct: the resultant supernatant was being a soluble fraction of the kidney; from tissue; host or cells: kidney of adrenalectomized rat, 105,000 G supernatant (soluble fraction)
# T1 sequence (P22199 1-981): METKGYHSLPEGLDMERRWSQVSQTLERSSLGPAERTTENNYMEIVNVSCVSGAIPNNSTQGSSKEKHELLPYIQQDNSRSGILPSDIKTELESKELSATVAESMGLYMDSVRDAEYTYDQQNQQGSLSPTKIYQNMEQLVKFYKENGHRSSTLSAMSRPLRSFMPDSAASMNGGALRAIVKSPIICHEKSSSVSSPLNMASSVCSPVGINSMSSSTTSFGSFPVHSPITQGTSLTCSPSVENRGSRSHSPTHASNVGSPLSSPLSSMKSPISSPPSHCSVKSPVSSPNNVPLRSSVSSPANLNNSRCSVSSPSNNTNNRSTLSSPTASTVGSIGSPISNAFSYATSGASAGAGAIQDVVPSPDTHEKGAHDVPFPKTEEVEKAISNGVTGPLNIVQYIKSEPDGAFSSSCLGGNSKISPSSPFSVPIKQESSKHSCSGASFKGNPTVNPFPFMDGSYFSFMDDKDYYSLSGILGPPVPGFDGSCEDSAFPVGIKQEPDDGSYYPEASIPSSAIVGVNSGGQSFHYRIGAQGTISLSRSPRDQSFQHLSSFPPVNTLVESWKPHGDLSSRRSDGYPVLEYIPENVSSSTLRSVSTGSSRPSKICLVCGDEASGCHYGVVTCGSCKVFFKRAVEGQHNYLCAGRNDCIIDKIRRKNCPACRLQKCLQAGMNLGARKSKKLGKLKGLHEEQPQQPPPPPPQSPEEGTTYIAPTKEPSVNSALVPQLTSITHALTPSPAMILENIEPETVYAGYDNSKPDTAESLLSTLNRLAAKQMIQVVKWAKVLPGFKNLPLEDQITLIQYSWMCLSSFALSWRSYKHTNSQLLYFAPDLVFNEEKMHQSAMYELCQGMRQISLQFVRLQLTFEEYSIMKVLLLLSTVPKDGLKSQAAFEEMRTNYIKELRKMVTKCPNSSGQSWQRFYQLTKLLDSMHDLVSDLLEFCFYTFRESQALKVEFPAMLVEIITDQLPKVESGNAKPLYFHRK
# Assay: Aldosterone receptor binding assay ([3H]aldosterone, soluble fraction of rat kidney)
# Conditions: [3H]aldosterone 2 nM, 2 μM RU-486, 4° C. about 18 hours
# Protocol: Flank incision (both sides) was subjected to a rat to adrenalectomize. After suturing the rat's incised parts, the rat was again returned to a breeding cage and bred for a duration of 3 to 5 days to collect a kidney from the rat; the collected kidney was homogenized with 0.1 M Tris-HCl, 0.25M sucrose, 0.1M Na2MoO4, 2 mM DTT buffer solution (pH 7.4), the resultant solution was subjected to centrifugal separation at 105,000 G for 30 minutes, and the resultant supernatant was being a soluble fraction of the kidney.
# Thereafter, the reactant solution was added with 50 μL of 5% dextran coated charcoal and mixed, and then centrifugated at 3,000 G for 5 minutes. Subsequently, 100 μL of the supernatant was collected and mixed with 3.5 mL of liquid scintillator ACS-II (Amersham) to measure a radioactivity with a liquid scintillation counter (manufactured by Packard, Tri Carb 2700TR). A non-specific binding was determined by adding 2 μM of aldosterone to the reactant solution.
# Binding inhibiting rate (%)=10−[(B−N)/(B0−N)]×100
# B: Binding amount of the marker ligand in the co-presence of the tested substance and marker ligand,
# B0: Binding amount of the marker ligand in the absence of the tested substance, and
# N: Binding amount of the marker ligand in the presence of excess aldosterone (2 μM).
row,SMILES,IC50 [nM]
1,"CC1=CC(C)(C)Nc2ccc(NS(=O)(=O)c3cc4ccccc4s3)cc21 [Example 75, N-(2,2,4-Trimethyl-1,2-dihydroquinolin-6-yl)-1-benzothiophene-2-sulfonamide]",390
2,"COC(=O)C(=O)N(c1ccc2c(c1)C(C)=CC(C)(C)N2)S(=O)(=O)c1cccs1 [Example 91, Methyl Oxo[(2-thienylsulfonyl)-(2,2,4-trimethyl-1,2-dihydroquinolin-6-yl)amino]acetate]",100
3,"CC1=CC(C)(C)Nc2ccc(NS(=O)(=O)c3cccnc3)cc21 [Example 73, N-(2,2,4-Trimethyl-1,2-dihydroquinolin-6-yl)pyridine-3-sulfonamide]",210
4,"CC1=CC(C)(C)Nc2ccc(NS(=O)(=O)c3ccccc3)cc21 [Example 63, N-(2,2,4-Trimethyl-1,2-dihydroquinolin-6-yl)benzenesulfonamide]",360
5,"CC1(C)OC(=S)Nc2ccc(NS(=O)(=O)c3cccs3)cc21 [Example 24, N-(4,4-Dimethyl-2-thioxo-1,4-dihydro-2H-3,1-benzoxazin-6-yl)thiophene-2-sulfonamide]",13
6,"C=CC1(C)OC(=O)Nc2ccc(NS(=O)(=O)c3cccs3)cc21 (stereo not drawn) [Example 49, N-(4-Methyl-2-oxo-4-vinyl-1,4-dihydro-2H-3,1-benzoxazin-6-yl)thiophene-2-sulfonamide]",2700
7,"CC1=CC(C)(C)Nc2ccc(OS(=O)(=O)c3ccc4ccccc4c3)cc21 [Example 52, 2,2,4-Trimethyl-1,2-dihydroquinolin-6-yl naphthalene-2-sulfonate]",730
8,"C#CC1(C)OC(=S)Nc2ccc(NS(=O)(=O)c3cccs3)cc21 (stereo not drawn) [Example 48, N-(4-Ethynyl-4-methyl-2-thioxo-1,4-dihydro-2H-3,1-benzoxazin-6-yl)thiophene-2-sulfonamide]",320
9,"CC(=O)N(c1ccc2c(c1)C(C)=CC(C)(C)N2)S(=O)(=O)c1ccccc1 [Example 87, N-(Phenylsulfonyl)-N-(2,2,4-trimethyl-1,2-dihydroquinolin-6-yl)acetamide]",500
10,"CC1(C)OC(=S)Nc2ccc(OS(=O)(=O)c3cccs3)cc21 [Example 12, 4,4-Dimethyl-2-thioxo-1,4-dihydro-2H-3,1-benzoxazin-6-yl thiophene-2-sulfonate]",83
11,"CC1=CC(C)(C)Nc2ccc(NS(=O)(=O)c3ccc(Cl)s3)cc21 [Example 66, 5-Chloro-N-(2,2,4-trimethyl-1,2-dihydroquinolin-6-yl)thiophene-2-sulfonamide]",1300
12,"CC(=O)N(c1ccc2c(c1)C(C)(C)OC(=S)N2)S(=O)(=O)c1cccs1 [Example 26, N-(4,4-Dimethyl-2-thioxo-1,4-dihydro-2H-3,1-benzoxazin-6-yl)-N-(2-thienylsulfonyl)acetamide]",15
13,"CC1(C)OC(=S)Nc2ccc(OS(=O)(=O)c3ccc4ccccc4c3)cc21 [Example 14, 4,4-Dimethyl-2-thioxo-1,4-dihydro-2H-3,1-benzoxazin-6-yl naphthalene-2-sulfonate]",470

# Continued, values first:
row,IC50 [nM],SMILES
1,270,"CC(=O)N(c1ccc2c(c1)C(C)=CC(C)(C)N2)S(=O)(=O)c1ccc(C)cc1 [Example 86, N-[(4-Methylphenyl)sulfonyl]-N-(2,2,4-trimethyl-1,2-dihydroquinolin-6-yl)acetamide]"
2,210,"Cc1ccc(S(=O)(=O)Nc2ccc3c(c2)C(C)(C)OC(=S)N3)cc1 [Example 22, N-(4,4-Dimethyl-2-thioxo-1,4-dihydro-2H-3,1-benzoxazin-6-yl)-4-methylbenzenesulfonamide]"
3,300,"CC(=O)N(c1ccc2c(c1)C(C)=CC(C)(C)N2)S(=O)(=O)c1ccc(Cl)cc1 [Example 88, N-[(4-Chlorophenyl)sulfonyl]-N-(2,2,4-trimethyl-1,2-dihydroquinolin-6-yl) acetamide]"
4,3900,"CC1CC(C)(C)Nc2ccc(NS(=O)(=O)c3ccc4ccccc4c3)cc21 (stereo not drawn) [Example 99, N-(2,2,4-Trimethyl-1,2,3,4-tetrahydroquinolin-6-yl)naphthalene-2-sulfonamide]"
5,190,"CC(=O)N(c1ccc2c(c1)C(C)CC(C)(C)N2)S(=O)(=O)c1ccc(C)cc1 (stereo not drawn) [Example 101, N-[(4-Methylphenyl)sulfonyl]-N-(2,2,4-trimethyl-1,2,3,4-tetrahydroquinolin-6-yl)acetamide]"
6,300,"CC1=CC(C)(C)Nc2ccc(NS(=O)(=O)c3ccc(C(F)(F)F)cc3)cc21 [Example 70, 4-(Trifluoromethyl)-N-(2,2,4-trimethyl-1,2-dihydroquinolin-6-yl)benzenesulfonamide]"
7,1200,"CC1=CC(C)(C)Nc2ccc(NS(=O)(=O)c3ccc(F)cc3)cc21 [Example 69, 4-Fluoro-N-(2,2,4-trimethyl-1,2-dihydroquinolin-6-yl)benzenesulfonamide]"
8,16000,"Cc1ccc(S(=O)(=O)Oc2ccc(NS(C)(=O)=O)cc2C)cc1 [Example 109, 2-Methyl-4-[(methylsulfonyl)amino]phenyl 4-methylbenzenesulfonate]"
9,2200,"Cc1ccc(S(=O)(=O)Nc2ccc3c(c2)C(C)CC(C)(C)N3)cc1 (stereo not drawn) [Example 97, 4-Methyl-N-(2,2,4-trimethyl-1,2,3,4-tetrahydroquinolin-6-yl)benzenesulfonamide]"
10,39,"CC1(C)OC(=S)Nc2ccc(CS(=O)(=O)c3ccccc3)cc21 [Example 18, 4,4-Dimethyl-6-[(phenylsulfonyl)methyl]-1,4-dihydro-2H-3,1-benzoxazin-2-thione]"
11,300,"CC1=CC(C)(C)Nc2ccc(NS(=O)(=O)c3ccc(C)cc3)cc21 [Example 60, 4-Methyl-N-(2,2,4-trimethyl-1,2-dihydroquinolin-6-yl)benzenesulfonamide]"
12,200,"CC1=CC(C)(C)Nc2cc(F)c(OS(=O)(=O)c3ccc(C)cc3)cc21 [Example 54, 7-Fluoro-2,2,4-trimethyl-1,2-dihydroquinolin-6-yl 4-methylbenzenesulfonate]"
13,1800,"Cc1ccc(S(=O)(=O)Cc2ccc3c(c2)CCC(C(F)(F)F)N3)cc1 (stereo not drawn) [Example 104, 6-{[(4-Methylphenyl)sulfonyl]methyl}-2-(trifluoromethyl)-1,2,3,4-tetrahydroquinoline]"

# System: decrease of Na/K ratio in urine induced with aldosterone
# Assay: Antagonistic action (in vivo antagonist activity) against decrease of Na/K ratio in urine induced with aldosterone, adrenalectomized rat
# Conditions: oral 10 and 30 mg/kg, 30 minutes before subcutaneous aldosterone, urine collection 4 hours (FIG. 1)
# Protocol: After anesthetizing a rat by administering 50 mg/kg of sodium pentobarbital in its abdominal cavity and disinfecting its skin with the Isodine diluted solution, the rat was incised. After adrenalectomy and confirming the hemostasis, the muscular layer and skin were sutured in this order and then the sutured part was disinfected with the Isodine diluted solution. After breeding 3 days or more, a rat showing good progress was subjected to the following test.
# It was fasted from the day preceding an examination, put into a metabolic cage at the day of the examination, and then subjected to a urine collection for 4 hours. When a substance to be tested was administered orally, it was administered in an amount of 5 ml/kg with 0.5% methylcellulose as a solvent. The aldosterone was dissolved with 1% ethanol/physiological saline and administered subcutaneously. The substance to be tested was administered 30 minutes before administering aldosterone. In order to stabilize and sufficiently secure the amount of the urine, physiological saline was administered orally in an amount of 20 ml/kg at the time of administering aldosterone. The colleted urine, after measuring its volume, was subjected to a measurement of electrolyte (sodium: Na and potassium: K) concentration in the urine with a biochemistry autoanalyzer (manufactured by Beckman, Synchron CX3 system Delta).
row,SMILES,inhibition of the decrease of the urine Na/K ratio induced with aldosterone
1,"CC1(C)OC(=S)Nc2ccc(NS(=O)(=O)c3cccs3)cc21 [Example 24, N-(4,4-Dimethyl-2-thioxo-1,4-dihydro-2H-3,1-benzoxazin-6-yl)thiophene-2-sulfonamide]",dose-dependently inhibited the decrease of the urine Na/K ratio

# — patent publication US20100160304A1, “AROMATIC SULFONE COMPOUND AS ALDOSTERONE RECEPTOR MODULATOR” (Dainippon Sumitomo Pharma Co., Ltd, priority 2005, published 2010)
